The nature of data set [1]: Rat Forced Swim Test (FST). The data set is classed as in vivo. Conditions: for Reduction in immobility: single dose 30 min before test. From the text: The Forced Swim Test (FST) is a classic, and the most used preclinical behavioral assay to screen compounds with antidepressant-like activity and has high predictive and face validity (Porsolt et al. (1977) Nature 266:730; Borsini and Meli (1988) Psychopharmacology 94:147). The premise of the FST is that when rats are placed into a cylinder filled with water, they will initially try to escape, but over time will become immobile. This increased immobility reflects behavioral despair, modeling a depressive-like state.
Forced Swim Test (EST): In the FST trial, rats were placed in a circular plexiglass container filled with water, with no means of escape. Water temperature was maintained at 22-25° C. and changed for every animal. After an acclimation period, rats were timed for inactivity (failure to struggle), activity, swim time and climbing time. Day 1 consisted of a 15 min acclimation trial, and Day 2 (24 h later) consisted of the 5 min test. A time sampling procedure was employed where animals were observed every 5 sec and scored for immobility, swimming, or climbing. Fluoxetine (10 mg/kg, IP, Sigma Aldrich) or 0.9% sterile saline vehicle (vehicle 3× group) were administered 23.5, 5, and 1 h before testing in the FST. […] The experimenter was blinded to treatment.
Forced Swim Test: In the FST trial, rats were placed in a circular plexiglass container filled with water, with no means of escape. Water temperature was maintained at 22-25° C. and changed for every animal. After an acclimation period, rats were timed for inactivity (failure to struggle), activity, swim time and climbing time. Day 1 consisted of a 15 min acclimation trial, and Day 2 (24 h later) consisted of the 5 min test. A time sampling procedure was employed where animals were observed every 5 sec and scored for immobility, swimming, or climbing. Fluoxetine (10 mg/kg, IP, Sigma Aldrich) or 0.9% sterile saline vehicle (vehicle 3× group) were administered 23.5, 5, and 1 h before testing in the FST. 2C-B (2.5, 10, or 20 mg/kg, IP, Cayman Chemical) or 0.9% saline vehicle (vehicle 1× group) were administered 30 min prior to FST testing. The experimenter was blinded to treatment.
Drug Treatment: Fluoxetine (10 mg/kg, IP, Sigma Aldrich) or 0.9% sterile saline vehicle were administered 23.5, 5, and 1 h before testing in the FST. […] Control animals received fluoxetine alone, methylone alone, or saline vehicle.
Forced Swim Test: In the FST trial, rats were placed in a circular plexiglass container filled with water, with no means of escape. Water temperature was maintained at 22-25° C. and changed for every animal. After an acclimation period, rats were timed for inactivity (failure to struggle), activity, swim time and climbing time. The experimenter and scorer were blind to treatment group. Day 1 consisted of a 15 min acclimation trial, and Day 2 (24 h later) consisted of the 5 min test. A time sampling procedure was employed where animals were observed every 5 sec and scored for immobility, swimming, or climbing.
The FST was performed and scored by an experimenter blind to treatment group according to standard protocols and based on a “modified FST” procedure (Slattery and Cryan (2012) Nat Protoc, 7:1009). Briefly, rats were placed in a circular plexiglass container (29.2 cm diameter, 49.5 cm height) filled with water to a depth of 30 cm so rats could not support themselves by touching the bottom of the tank. Water was maintained at 22-25° C. and was changed for every animal. Day 1 (Training) consisted of a 15 min acclimation trial, and Day 2 (Testing, 24 h later) consisted of the 5 min test. A time sampling procedure was employed where animals were observed every 5 seconds for the duration of the test session (60 counts or 5 minutes) and scored for immobility (defined as the failure to struggle), swimming (defined as a circular movement around the tank), or climbing (defined as an upwards escape behavior). […]

Data set [2] deals with myelin basic protein (MBP). Nature of the data set: Myelin basic protein immunohistochemistry in amygdala. The data set is classed as in vivo, rat. Conditions: 10 mg/kg IP, 24 h. The protocol: Immunohistochemistry: The in-life portion of the study was conducted at WuXi Apptec (Cranbury, NJ). Sectioning and staining of brains took place at Neuroscience Associates (NSA, Knoxville, TN). […] Brains were post-fixed in PFA before shipment to NSA for processing and staining. Hemisected brains were mounted, sectioned and stained using standard protocols with myelin-basic protein primary antibody (MBP SMI-99, 1:5000, Biolegend, San Diego, CA) and anti-mouse biotinylated secondary antibody (BA-2001, Vector Laboratories, Newark, CA). Slides were imaged using a Huron Digital Pathology TissueScope LE120 whole slide scanning system. 20× objective was used with a 0.4 μm/pixel resolution.

The nature of data set [3]: Methylone PTSD case series with long-term follow-up (CGI-I, safety). The class given is in vivo, human. From the text: The patients were not given structured psychotherapy in conjunction with methylone treatment, which differs from recent studies of MDMA that emphasize the importance of a manualized psychedelic-assisted psychotherapy model.
No protected health information was disclosed, and no consent was obtained from patients for use of their archival data. Case narratives were systematically compiled from data collected as part of routine clinical work. Diagnoses were confirmed by an experienced clinician using semi-structured interviews. Baseline symptom severity was evaluated using the Clinical Global Impressions Scale-Severity (CGI-S). Symptom improvement was evaluated using the Clinical Global Impressions Scale-Improvement (CGI-I) following dosing. […] Because these case narratives were examined retrospectively from routine clinical care records, and not gathered prospectively in a research study, more specific validated rating scales for assessing PTSD symptoms were not available. Additionally, follow-up varied, with the length of follow-up ranging from one week (Case 2) to 15 years (Case 16).
Dosing summary: Methylone was administered orally. Other medications were not changed during methylone treatment. […] In several cases, treatment was continued, and, in some cases, the dose was further escalated in later sessions (see Table 5). Booster doses were included for 19 patients in one or more of the sessions. Starting doses were between 100 and 270 mg, and these as well as booster doses were selected based on clinical judgement.

The conditions of data set [4]: rats, intraperitoneal; cited from earlier work.
Data set [5] deals with Sprague Dawley rat neurons. Nature of the data set: Neurite outgrowth in E18 cortical cultures. The class given is cell-based. Conditions: 10 μM, applied day 1, fixed day 3-4. The protocol:
Neuroplasticity is defined as changes in the structure, connections and function of neurons, including neurite outgrowth. […] E18 cortical cultures were harvested and plated on culture dishes. […] Neurite length was measured using ImageJ software.

The next data set has as its target T1, 168 GPCRs (Homo sapiens, UniProt P35408).
T1 construct: host or cells: PathHunter cell lines
Kind of data set: β-arrestin GPCR screen (PathHunter / GPCRmax), agonist mode. Conditions: PTGER4, 1 uM. The class given is cell-based. The protocol: For agonist determination, cells were incubated with sample to induce response. […] Vehicle concentration was 1%.

Results on 1 compound are retold here after patent US12295937B2, “Psychoactive medicines and their use for treating psychiatric and neurological conditions and disorders” (Transcend Therapeutics, Inc., priority 2021, dated 2025).

SMILES strings stand for the structures.

The half-life is how long it takes for the measured level to halve.

T1 sequence (P35408 whole entry): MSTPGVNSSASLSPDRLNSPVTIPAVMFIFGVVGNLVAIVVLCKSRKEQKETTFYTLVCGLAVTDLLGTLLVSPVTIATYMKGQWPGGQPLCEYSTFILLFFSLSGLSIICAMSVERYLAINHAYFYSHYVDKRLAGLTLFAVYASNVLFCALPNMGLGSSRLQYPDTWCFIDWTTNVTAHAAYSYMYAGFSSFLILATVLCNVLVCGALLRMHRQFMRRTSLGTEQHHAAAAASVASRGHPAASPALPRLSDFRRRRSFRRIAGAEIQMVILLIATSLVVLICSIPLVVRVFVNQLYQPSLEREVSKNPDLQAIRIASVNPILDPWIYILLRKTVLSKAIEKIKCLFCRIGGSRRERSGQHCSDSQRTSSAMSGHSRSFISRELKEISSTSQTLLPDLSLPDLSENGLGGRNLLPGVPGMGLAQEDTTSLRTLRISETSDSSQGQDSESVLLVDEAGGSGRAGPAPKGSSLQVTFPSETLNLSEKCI

The compound `CNC(C)C(=O)c1ccc2c(c1)OCO2` (stereo not shown) [Methylone, 3,4-methylenedioxy-N-methylcathinone] came in with a Reduction in immobility in data set [1] (15 mg/kg IP) of 99%. In data set [1] (15 mg/kg PO, 2 hours before test), the “Antidepressant-like effect vs. vehicle” value is “significant antidepressant-like effect”. This compound showed a Reduction in immobility in data set [1] (30 mg/kg IP) of 96%. The “Reduced immobility vs. vehicle” value in data set [1] (Methylone 5 mg/kg IP after three prior doses of fluoxetine 10 mg/kg) turned out to be 62%. Also, the “Reduced immobility vs. vehicle” value in data set [1] (Methylone alone 5 mg/kg IP (Example 8)) is 71%. For the same compound, in data set [1] (doses as worded), the Climbing behavior result was “significantly increased climbing behavior”; the Swimming behavior result is “Mid and high doses of methylone significantly increased swimming”. Moreover, the Climbing behavior entry in data set [1] (doses as worded, listed as methylone) is “Climbing was only increased at the lowest dose of methylone”. Also, in data set [1] (four […] IP doses 20.5, 8.5, 4.5, 0.5 h before test), the “Antidepressant-like effect of multiple lower doses” value is on record as “significant antidepressant-like effects”. The “Immobility vs. saline vehicle” value in data set [1] (single dose 5, 10, 15, 20 and 30 mg/kg IP, 30 min before test) is on record as “significantly reduced immobility”. Also, the “MBP in basolateral and central nuclei of the amygdala vs. vehicle” value in data set [2] is given as “significant reduction in MBP”. Besides, in data set [3] (21 PTSD patients), the Adverse events noted result was “four adverse events were noted in three of the 21 patients” and the “Patients much improved or very much improved per CGI-I” value worked out at 81%. Besides, the “Patients reporting a durable effect” value in data set [3] (of 17 patients with durability information) is listed as 16. In data set [3] (of 21 PTSD patients), the “Patients achieving CGI-I 1 (very much improved)” value was 9 patients, the “Patients achieving CGI-I 2 (much improved)” value came to 8 patients and the “Patients achieving a CGI-I of 1 or 2” value is on record as 17 patients. Moreover, the “Patients achieving CGI-I 1 or 2” value in data set [3] (patients with a single dose session (n=9)) was found to be 89%. In addition, the “Patients with initial improvement after the initial session” value in data set [3] (patients with multiple dosing sessions (n=12)) worked out at 83%. Besides, in data set [4], the half-life was 1 to 2 h. Also, the “Increase in neurite length vs. vehicle” value in data set [5] is approximately 2 fold. Besides, on 168 GPCRs, the “% Activity” value was found to be 2.8%.
